Reference: paper PMC6751662, “Pharmacological and functional similarities of the human neuropeptide Y system in C. elegans challenges phylogenetic views on the FLP/NPR system” (Cell Communication and Signaling : CCS, 2019)
Ends that are not written are not given here.

Legend:
[1] = target: T1, NPR-5b (Caenorhabditis elegans, UniProt Q6F3C9); experiment: cAMP reporter gene assay, Gi/o (with forskolin), NPR-5b; assay type: cell-based, C. elegans; parameters: Emax: unit not given here; conditions: for cAMP, x-fold of forskolin (mean), NPR-5b: 1 µM forskolin set to 1.00, values > 1 = cAMP stimulation; for cAMP, x-fold of forskolin (mean), NPR-5b / Gi (Gs) [x-fold of forskolin], NPR-5b, mean / Emax / EC50: transiently transfected HEK293 cells; for cAMP, x-fold of forskolin (mean), NPR-5b / Gi (Gs) [x-fold of forskolin], NPR-5b, mean: mean of at least three independent experiments; for cAMP assay Gi, NPR-5b: 4 h, transfected HEK293, CRE-luciferase, increase consistent with Gs coupling, mean of >=3 independent experiments; for Gi (Gs) [x-fold of forskolin], NPR-5b, mean: with 1 µM forskolin (set to 1.00), increase of cellular cAMP consistent with Gs coupling; for Emax / EC50: NPR-5b; for Emax: forskolin (1 µM) set to 1.00, increase of cAMP, mean ± SEM of at least three independent experiments, SEM; for EC50: full concentration-response curve, with 1 µM forskolin, increase of cAMP, at least three independent experiments
T1 sequence (Q6F3C9 1-433): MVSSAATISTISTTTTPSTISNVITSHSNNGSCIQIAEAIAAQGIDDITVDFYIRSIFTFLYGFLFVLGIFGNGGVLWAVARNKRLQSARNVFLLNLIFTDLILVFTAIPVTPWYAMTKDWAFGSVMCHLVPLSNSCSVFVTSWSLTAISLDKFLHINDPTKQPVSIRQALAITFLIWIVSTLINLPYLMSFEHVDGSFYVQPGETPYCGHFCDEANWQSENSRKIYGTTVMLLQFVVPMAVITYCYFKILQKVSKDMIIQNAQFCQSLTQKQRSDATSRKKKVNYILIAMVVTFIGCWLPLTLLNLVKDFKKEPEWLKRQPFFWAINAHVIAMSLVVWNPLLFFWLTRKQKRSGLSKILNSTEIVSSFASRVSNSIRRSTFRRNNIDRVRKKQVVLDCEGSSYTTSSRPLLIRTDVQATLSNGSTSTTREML
Procedure: (§1) Activation of Gs and Gi/o was assessed with a cAMP reporter gene assay. HEK293 cells grown to 70–80% confluency in 6-well plates were transiently co-transfected with vectors encoding the receptor and the cAMP reporter gene plasmid pGL4.29 [luc2P/CRE/Hygro] (Promega; 4 μg total, 1:1 ratio) using Metafectene Pro (3 μl/μg DNA; Biontex) following the manufacturer’s instructions. 16 h post transfection, the cells were seeded into white 384-well plates at a density of 20,000 cells/well. On the next day, the medium was removed and the cells were stimulated with 20 μl of peptide solution (or forskolin as positive control) in serum-free DMEM for 4 h. For measuring Gi/o activity, the peptide solutions additionally contained 1 μM forskolin to elevate cellular cAMP levels. After incubation, the luciferase substrate OneGlo in lysis buffer (Promega) was added and the luminescence was measured in a microplate reader Tecan Spark (Tecan).
(§2) For in vitro activation, data is presented as mean ± SEM of at least three independent experiments conducted in technical triplicate. […] For the C. elegans NPRs, we considered the strongest response elicited by any of the peptides downstream of a particular receptor as the receptor’s maximal signal. This may or may not be the biological maximum that can be reached by the ‘true’ endogenous agonist. For the human receptors, the response to the established endogenous agonist reflected the maximal signal.

[2] = system: NPR-6; experiment: cAMP reporter gene assay, Gi/o (inhibition of forskolin-induced cAMP), NPR-6; assay type: cell-based, C. elegans; conditions: for cAMP, x-fold of forskolin (mean), NPR-6: 1 µM forskolin set to 1.00; for cAMP, x-fold of forskolin (mean), NPR-6 / Gi (Gs) [x-fold of forskolin], NPR-6, mean: transiently transfected HEK293 cells, mean of at least three independent experiments; for cAMP assay Gi, NPR-6: 4 h, lower = higher Gi/o activity, transfected HEK293, CRE-luciferase, mean of >=3 independent experiments; for Gi (Gs) [x-fold of forskolin], NPR-6, mean: inhibition of cAMP production induced by 1 µM forskolin (set to 1.00)
Procedure: as §1, with “(Tecan). Data were analyzed with GraphPad Prism 5.03 and are shown as fold of basal or fold of forskolin in case of Gαi/o activity.” for “(Tecan).”
as §2

[3] = target: T2, Y4R (Homo sapiens, UniProt P50391); experiment: IP accumulation assay, chimeric GαΔ6qi4myr, Y4R; assay type: cell-based; conditions: chimeric GαΔ6qi4myr co-transfected, transiently transfected HEK293 cells, mean of at least three independent experiments
T2 construct: expressed in transfected cells; host or cells: HEK293, transient
Procedure: (§3) For measuring IP accumulation, HEK293 cells grown to 70–80% confluency in 6-well plates were transiently co-transfected using Metafectene Pro (2.5 μl/μg DNA; Biontex) with plasmids containing receptor and/or mock (empty pcDNA3.1) (for endogenous Gq-coupling) using 4 μg total DNA in a ratio of 3:1 following the manufacturer’s instructions. For testing Gα16- and GαΔ6qi4myr-coupling, plasmids encoding the corresponding Gα protein were co-transfected instead of mock. Gα16 is naturally promiscuous and stimulates the phospholipase C (PLC) pathway leading to IP production, while the exchange of the C-terminal four amino acids of Gαq for the corresponding residues of Gαi1 in the chimeric GαΔ6qi4myr confers the ability to couple to Gi/o protein-preferring receptors but still stimulate PLC, thus specifically redirecting downstream cellular signaling. 16 h post transfection, the cells were seeded into white 384-well plates at a density of 20,000 cells/well. Media was removed 24 h later and the cells were incubated with the indicated concentration of peptides for 1 h in HBSS + 20 mM LiCl. IP accumulation was measured with the HTRF-based IP-One Gq kit (Cisbio) on a microplate reader (Tecan Spark).
as §2

[4] = target: T3, Y5R (Homo sapiens, UniProt Q15761); experiment: IP accumulation assay, chimeric GαΔ6qi4myr, Y5R; assay type: cell-based; conditions: chimeric GαΔ6qi4myr co-transfected, transiently transfected HEK293 cells, mean of at least three independent experiments
T3 construct: expressed in transfected cells; host or cells: HEK293, transient
T3 sequence (Q15761 1-445): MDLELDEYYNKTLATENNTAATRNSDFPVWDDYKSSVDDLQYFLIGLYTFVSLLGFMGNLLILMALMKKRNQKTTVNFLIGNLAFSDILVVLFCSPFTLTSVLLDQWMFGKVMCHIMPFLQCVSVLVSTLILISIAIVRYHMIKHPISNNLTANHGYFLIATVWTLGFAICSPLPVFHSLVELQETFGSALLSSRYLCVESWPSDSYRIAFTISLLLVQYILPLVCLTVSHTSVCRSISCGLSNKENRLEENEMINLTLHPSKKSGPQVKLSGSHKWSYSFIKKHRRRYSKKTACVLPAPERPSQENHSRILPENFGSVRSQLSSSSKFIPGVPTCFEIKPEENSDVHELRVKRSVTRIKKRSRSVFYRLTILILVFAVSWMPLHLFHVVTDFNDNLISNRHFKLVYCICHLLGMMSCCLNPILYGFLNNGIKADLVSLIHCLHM
Procedure: as §3, §2

[5] = 0.1 µM peptide + 1 µM forskolin (set to 1.00)
[6] = 10 µM peptide + 1 µM forskolin (set to 1.00)

T2 sequence (P50391 whole entry): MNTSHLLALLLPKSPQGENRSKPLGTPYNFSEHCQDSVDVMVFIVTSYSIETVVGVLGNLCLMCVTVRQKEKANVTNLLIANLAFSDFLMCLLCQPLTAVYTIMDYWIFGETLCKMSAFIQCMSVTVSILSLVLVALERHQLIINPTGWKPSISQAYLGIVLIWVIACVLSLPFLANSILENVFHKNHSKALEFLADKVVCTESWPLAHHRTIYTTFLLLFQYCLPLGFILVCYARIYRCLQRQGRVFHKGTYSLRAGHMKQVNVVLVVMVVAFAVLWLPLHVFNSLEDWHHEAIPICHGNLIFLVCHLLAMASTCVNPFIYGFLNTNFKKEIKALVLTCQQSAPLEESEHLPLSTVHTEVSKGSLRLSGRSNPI

Row | Substance | cAMP, x-fold of forskolin (mean), NPR-5b ([1]; 0.1 µM peptide) | cAMP, x-fold of forskolin (mean), NPR-5b ([1]; 10 µM peptide) | cAMP, x-fold of forskolin (mean), NPR-6 ([2]; 0.1 µM peptide) | cAMP, x-fold of forskolin (mean), NPR-6 ([2]; 10 µM peptide) | IP accumulation, x-fold of basal (mean), Y4R ([3]; 0.1 µM peptide) | IP accumulation, x-fold of basal (mean), Y4R ([3]; 10 µM peptide) | IP accumulation, x-fold of basal (mean), Y5R ([4]; 0.1 µM peptide) | IP accumulation, x-fold of basal (mean), Y5R ([4]; 10 µM peptide) | other results
1 | AGSDPNFLRF-NH2 [FLP-1-2, C. elegans FMRFamide-like peptide, C-terminally amidated, synthesized by SPPS] | 1.02 x-fold of forskolin | 1.72 x-fold of forskolin | 0.94 x-fold of forskolin | 0.29 x-fold of forskolin | 1.28 x-fold of basal | 1.45 x-fold of basal | 1.33 x-fold of basal | 1.17 x-fold of basal | –
2 | APKPKFIRF-NH2 [FLP-5-1, C. elegans FMRFamide-like peptide, C-terminally amidated, synthesized by SPPS] | 0.91 x-fold of forskolin | 1.96 x-fold of forskolin | 0.84 x-fold of forskolin | 1.01 x-fold of forskolin | 1.38 x-fold of basal | 1.28 x-fold of basal | 0.80 x-fold of basal | 5.88 x-fold of basal | cAMP assay Gi, NPR-5b [1, 5]: 0.92 x-fold of forskolin; cAMP assay Gi, NPR-5b [1, 6]: 1.90 x-fold of forskolin; cAMP assay Gi, NPR-6 [2, 5]: 0.85 x-fold of forskolin; cAMP assay Gi, NPR-6 [2, 6]: 1.01 x-fold of forskolin
3 | APLEGFEDMSGFLRTIDGIQKPRF-NH2 [FLP-33, NPY-like C. elegans FLP with C-terminal RxRF/Ya signature] | 0.79 x-fold of forskolin | 0.85 x-fold of forskolin | 0.86 x-fold of forskolin | 0.91 x-fold of forskolin | – | – | – | – | –
4 | APLEPVYPGDNATPEQMAQYAADLRRYINMLTRPRY-NH2 [PP, human pancreatic polypeptide, reference compound] | 0.86 x-fold of forskolin | 0.96 x-fold of forskolin | 1.01 x-fold of forskolin | 1.00 x-fold of forskolin | 4.73 x-fold of basal | 4.61 x-fold of basal | 16.39 x-fold of basal | 17.90 x-fold of basal | –
5 | ASPSFIRF-NH2 [FLP-4-2, C. elegans FMRFamide-like peptide, C-terminally amidated, synthesized by SPPS] | 0.90 x-fold of forskolin | 1.82 x-fold of forskolin | 0.86 x-fold of forskolin | 0.72 x-fold of forskolin | 1.45 x-fold of basal | 1.04 x-fold of basal | 1.14 x-fold of basal | 1.29 x-fold of basal | –
6 | EASAFGDIIGELKGKGLGGRMRF-NH2 [FLP-27, NPY-like C. elegans FLP with C-terminal RxRF/Ya signature] | 0.88 x-fold of forskolin | 1.61 x-fold of forskolin | 1.02 x-fold of forskolin | 0.88 x-fold of forskolin | – | – | – | – | –
7 | GLGPRPLAF-NH2 [[R8A]FLP-21, R8A control peptide of FLP-21, penultimate arginine exchanged for an alanine] | – | – | – | – | – | – | – | – | Gi (Gs) [x-fold of forskolin], NPR-5b, mean ([1]; 0.1 µM peptide): 1.06 x-fold of forskolin; Gi (Gs) [x-fold of forskolin], NPR-5b, mean ([1]; 10 µM peptide): 0.97 x-fold of forskolin; Gi (Gs) [x-fold of forskolin], NPR-6, mean ([2]; 0.1 µM peptide): 1.00 x-fold of forskolin; Gi (Gs) [x-fold of forskolin], NPR-6, mean ([2]; 10 µM peptide): 0.86 x-fold of forskolin
8 | GLGPRPLRF-NH2 [FLP-21] | – | – | – | – | – | – | – | – | Emax [1]: 3.8 ± 0.26; EC50 [1]: 0.432 µM
9 | RGPSGPLAF-NH2 [[R8A]FLP-15-2] | – | – | – | – | – | – | – | – | Gi (Gs) [x-fold of forskolin], NPR-5b, mean ([1]; 0.1 µM peptide): 0.98 x-fold of forskolin; Gi (Gs) [x-fold of forskolin], NPR-5b, mean ([1]; 10 µM peptide): 0.93 x-fold of forskolin; Gi (Gs) [x-fold of forskolin], NPR-6, mean ([2]; 0.1 µM peptide): 0.92 x-fold of forskolin; Gi (Gs) [x-fold of forskolin], NPR-6, mean ([2]; 10 µM peptide): 0.99 x-fold of forskolin
10 | RGPSGPLRF-NH2 [FLP-15-2] | – | – | – | – | – | – | – | – | Emax [1]: 3.28 ± 1.7; EC50 [1]: 6.65 µM
11 | SEVPGVLRF-NH2 [FLP-18-5] | – | – | – | – | – | – | – | – | Emax [1]: 3.6 ± 0.22
